The target in one series is butyrylcholinesterase. The note with it: read-out: butyrylcholinesterase inhibitory activity IC50; cited from earlier work.
The test system of a further series is HT-29. The note with it: read-out: cytotoxicity against HT-29 IC50; cited from earlier work.
The next series relates to RAW 264.7 cells. The series can be described thus: MTT cytotoxicity assay in mammalian cells. The class given is cell-based. The note with it: Mus musculus, RAW264.7, read-out: IC50 RAW 264.7, MTT. On the technique in general: Formazan colour is commonly taken as a measure of viable cells.
For the next series, the system named is A549 cells. Description: MTT cytotoxicity assay, lung cancer. The class given is cell-based, human. As to conditions: Homo sapiens, A549, read-out: IC50 A549 (lung cancer).
The nature of series [1]: MTT cytotoxicity assay, colorectal cancer. Type of series: cell-based, human. The note with it: human, SW480 cells (colorectal cancer).
The next series relates to SW480 cells. Description: MTT cytotoxicity assay, colorectal cancer. The note with it: Homo sapiens, SW480, read-out: IC50 SW480 (Colorectal cancer), MTT. The class given is cell-based, human.
A further series deals with K562 cells. Description: MTT cytotoxicity assay, leukemia. The note with it: Homo sapiens, K562, read-out: IC50 K562 (leukemia), MTT. The class given is cell-based, human.
A short description of series [2]: cytotoxicity screening, summary over cell lines. The note with it: mouse, human. The class given is cell-based.
Series [3] is described as follows: MTT cytotoxicity assay in mammalian cells. The class given is cell-based. As to conditions: mouse, RAW 264.7 cells.
The nature of series [4]: MTT cytotoxicity assay, lung cancer. The note with it: human, A549 cells (lung cancer). Type of series: cell-based, human.
Series [5] is described as follows: MTT cytotoxicity assay, leukemia. The note with it: human, K562 cells (leukemia). The class given is cell-based, human.
In series [6] the target is T1, α-glucosidase (Saccharomyces cerevisiae, UniProt P53341). The series can be described thus: colorimetric α-glucosidase inhibitory assay. The class given is biochemical. As to conditions: mean ± SD.
T1 sequence (P53341 whole entry): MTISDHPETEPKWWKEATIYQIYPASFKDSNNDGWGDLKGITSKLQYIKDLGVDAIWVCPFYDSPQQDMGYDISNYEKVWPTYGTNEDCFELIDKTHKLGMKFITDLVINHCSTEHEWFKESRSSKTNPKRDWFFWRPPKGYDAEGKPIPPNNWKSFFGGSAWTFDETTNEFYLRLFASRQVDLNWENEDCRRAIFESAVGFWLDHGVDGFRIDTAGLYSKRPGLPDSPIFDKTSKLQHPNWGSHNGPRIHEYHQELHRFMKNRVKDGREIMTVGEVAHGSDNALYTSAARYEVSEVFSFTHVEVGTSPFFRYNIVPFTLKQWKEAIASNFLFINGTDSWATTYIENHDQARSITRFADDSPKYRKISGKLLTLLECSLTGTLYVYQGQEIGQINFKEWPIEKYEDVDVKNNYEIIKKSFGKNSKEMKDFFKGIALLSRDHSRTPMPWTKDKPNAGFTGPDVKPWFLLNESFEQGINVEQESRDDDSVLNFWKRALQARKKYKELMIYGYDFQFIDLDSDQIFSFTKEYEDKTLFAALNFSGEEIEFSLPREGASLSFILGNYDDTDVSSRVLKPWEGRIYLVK
Another series deals with T2, α-amylase (Sus scrofa, UniProt P00690).
T2 sequence (P00690 16-511): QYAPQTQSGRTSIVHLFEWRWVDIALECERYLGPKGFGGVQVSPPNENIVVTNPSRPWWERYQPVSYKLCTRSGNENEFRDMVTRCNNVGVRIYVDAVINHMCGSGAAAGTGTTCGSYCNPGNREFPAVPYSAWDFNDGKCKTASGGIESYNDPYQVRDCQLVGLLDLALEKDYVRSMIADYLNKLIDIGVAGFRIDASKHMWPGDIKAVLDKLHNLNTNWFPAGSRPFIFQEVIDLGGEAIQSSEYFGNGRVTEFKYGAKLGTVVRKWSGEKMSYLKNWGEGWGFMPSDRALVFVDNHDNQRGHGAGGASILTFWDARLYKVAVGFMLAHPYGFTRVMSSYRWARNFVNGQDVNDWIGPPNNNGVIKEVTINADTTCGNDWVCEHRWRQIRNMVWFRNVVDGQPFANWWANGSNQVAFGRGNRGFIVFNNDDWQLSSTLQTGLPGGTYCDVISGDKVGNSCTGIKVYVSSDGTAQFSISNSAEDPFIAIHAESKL
The series can be described thus: α-amylase inhibitory assay. Type of series: biochemical. As to conditions: at a concentration of 100 μg/mL; mean ± SD.

The subject of another series is HepG2 cell lines. The note with it: read-out: cytotoxicity against HepG2 cell lines IC50; cited from earlier work.
For series [7] the following is noted: cited from earlier work.
Series [8] deals with T1, α-glucosidase. The note with it: read-out: α-glucosidase inhibitory activity IC50; cited from earlier work.

As to `COc1ccc(-c2coc3c4c(ccc3c2=O)OC(C)(C)C=C4)cc1OC` [4′,5′-dimethoxy-6,6-dimethylpyranoisoflavone], on butyrylcholinesterase, the half-maximal inhibitory concentration (IC50) is 2.34 µM.
`C=C(C)[C@H]1Cc2c(ccc3c2O[C@@H]2COc4cc(OC)c(OC)cc4[C@]2(O)C3=O)O1` [(−)-Hydroxyrotenone]: the concentration for half-maximal inhibition (IC50) with HT-29 was 0.1 µM.
For `C=C(C)[C@H]1Cc2c(ccc3c2O[C@@H]2COc4cc(OC)c(OC)cc4[C@@H]2C3=O)O1` [(−)-rotenone], in the series on HT-29, the IC50 was 0.3 µM.
For `CC(C)=CCc1c(O)c(CC=C(C)C)c2occ(-c3ccc(O)cc3)c(=O)c2c1O` [Compound 10, 6,8-diprenylgenistein], in the series on RAW 264.7 cells, the IC50 was greater than 100 µM. Further, the IC50 with A549 cells is greater than 100 µM. Also, in series [1], the viability at 6.25 μg/mL came out at 117.5 ± 0.31%, the viability at 12.5 μg/mL was 118.8 ± 0.92%, the viability at 25 μg/mL turned out to be 117 ± 3.08% and the viability at 50 μg/mL came to 94.7 ± 3.85%. Further, the viability at 100 μg/mL in series [1] is 77 ± 3.95%. For the same compound, the IC50 in the series with SW480 cells was greater than 100 µM. The IC50 with K562 cells was greater than 100 µM. In addition, the viability in series [2] (RAW 264.7 and SW480 cells) is 5.66 to 77%.
As to `C=C(C)C(O)Cc1c(O)c(CC=C(C)C)c2occ(-c3ccc(O)cc3)c(=O)c2c1O` (centres unmarked) [Compound 13, isoerysenegalensein E], in series [3], the viability at 24 h, 6.25 μg/mL was 103 ± 8.01%; the viability at 24 h, 12.5 μg/mL is 100 ± 2.13%; the viability at 24 h, 25 μg/mL turned out to be 61.9 ± 3.12%; the viability at 24 h, 50 μg/mL worked out at 47.3 ± 2.94%. Moreover, the viability at 24 h, 100 μg/mL in series [3] is 29.4 ± 3.72%. Besides, the IC50 in the series on RAW 264.7 cells was found to be 56.1 µM. Moreover, in the series with A549 cells, the IC50 was greater than 100 µM. Also, in [1], the viability at 6.25 μg/mL stood at 94 ± 4.18%, the viability at 12.5 μg/mL was 92.8 ± 1.57%, the viability at 25 μg/mL was found to be 90.4 ± 1.91% and the viability at 50 μg/mL is 89.5 ± 3.29%. Moreover, in series [1], the viability at 100 μg/mL was 59.5 ± 1.3%. Further, the IC50 with SW480 cells is greater than 100 µM. Moreover, the 50% inhibitory concentration (IC50) in the series with K562 cells was greater than 100 µM. Moreover, the viability in [2] (RAW 264.7 and SW480 cells) was in the range of 5.66 to 77%.
Turning to `CC(C)=CCc1c2c(c3occ(-c4ccc(O)cc4)c(=O)c3c1O)CC(C(C)(C)O)O2` (centres unmarked) [Compound 16, senegalensin], in [3], the viability at 24 h, 6.25 μg/mL came to 154 ± 1.59%; the viability at 24 h, 12.5 μg/mL was 139 ± 6.94%; the viability at 24 h, 25 μg/mL was 58.7 ± 2.23%; the viability at 24 h, 50 μg/mL was found to be 6 ± 0.65%. For the same compound, the viability at 24 h, 100 μg/mL in series [3] was 5.3 ± 0.01%. In addition, in the series on RAW 264.7 cells, the IC50 stood at 51.5 µM. Besides, in [4], the viability at 6.25 μg/mL was 126 ± 1.36%, the viability at 12.5 μg/mL was 116 ± 2.68%, the viability at 25 μg/mL is 97 ± 9.76% and the viability at 50 μg/mL is 6.25 ± 0.33%. For the same compound, the viability at 100 μg/mL in series [4] amounted to 4.53 ± 0.07%. Besides, the IC50 in the series on A549 cells was 70.9 µM. Besides, in [1], the viability at 6.25 μg/mL worked out at 166 ± 6.12%, the viability at 12.5 μg/mL is 142 ± 1.71%, the viability at 25 μg/mL is 122 ± 6.64% and the viability at 50 μg/mL worked out at 6.6 ± 0.14%. In series [1], the viability at 100 μg/mL was found to be 6.09 ± 0.11%. The IC50 with SW480 cells is 69.8 µM. In series [5], the viability at 6.25 μg/mL was 76.6 ± 3.38%, the viability at 12.5 μg/mL is 28.8 ± 0.39%, the viability at 25 μg/mL turned out to be 11.54 ± 0.06% and the viability at 50 μg/mL was 10.2 ± 0.15%. Also, the viability at 100 μg/mL in [5] was determined as 9.7 ± 0.15%. The 50% inhibitory concentration (IC50) in the series with K562 cells stood at 21.5 µM. Moreover, in [2] (A549, SW480, K562 and RAW 264.7 cells), the viability lay within 4.53 to 48.2%.
In the case of `C[C@H]1O[C@H](O[C@H]2[C@H](O)[C@@H](O)[C@@H](O[C@H]3[C@H](O)[C@@H](O)C(O)O[C@@H]3CO)O[C@@H]2CO)[C@H](O)[C@@H](O)[C@@H]1N[C@H]1C=C(CO)[C@@H](O)[C@H](O)[C@H]1O` (some centres unmarked) [acarbose], the “α-glucosidase inhibition, inhibition rate (%)” value at α-glucosidase [6] was 57.2 ± 0.8%. The “α-amylase inhibition, inhibition rate (%)” value at α-amylase was determined as 58.5 ± 1.9%.
Turning to `COc1cc(OC)c(-c2coc3c4c(ccc3c2=O)OC(C)(C)C=C4)cc1OC` [barbigerone], in the series on HepG2 cell lines, the IC50 is 0.61 µM.
For the compound `COc1cc2c(cc1OC)[C@@H]1C(=O)c3ccc4c(c3O[C@@H]1CO2)C=CC(C)(C)O4` [deguelin], the IC50 at butyrylcholinesterase was 14.2 µM.
Turning to `COc1cccc2c1C(=O)c1c(O)c3c(c(O)c1C2=O)C[C@@](O)(C(=O)CO)C[C@@H]3O[C@H]1C[C@H](N)[C@H](O)[C@H](C)O1` [doxorubicin, reference compound], in series [3], the viability at 24 h, 6.25 μg/mL stood at 4.62 ± 0.17%; the viability at 24 h, 12.5 μg/mL turned out to be 5.35 ± 0.27%; the viability at 24 h, 25 μg/mL was 4.59 ± 0.01%; the viability at 24 h, 50 μg/mL worked out at 4.44 ± 0.08%. The viability at 24 h, 100 μg/mL in series [3] is 5.96 ± 0.42%. In addition, in the series on RAW 264.7 cells, the concentration for half-maximal inhibition (IC50) was less than 11.5 µM. In series [4], the viability at 6.25 μg/mL worked out at 79.6 ± 1.89%, the viability at 12.5 μg/mL turned out to be 74 ± 0.75%, the viability at 25 μg/mL worked out at 57.7 ± 1.71% and the viability at 50 μg/mL stood at 52.8 ± 1.51%. In addition, the viability at 100 μg/mL in [4] came to 10.1 ± 3.11%. The IC50 in the series on A549 cells worked out at 134 µM. Further, in series [1], the viability at 6.25 μg/mL was found to be 80 ± 2.48%, the viability at 12.5 μg/mL came out at 73.9 ± 1.19%, the viability at 25 μg/mL worked out at 60.2 ± 1.51% and the viability at 50 μg/mL stood at 17.8 ± 1.49%. Further, in [1], the viability at 100 μg/mL came out at 16.8 ± 1.29%. In addition, in the series on SW480 cells, the IC50 amounted to 53.4 µM. Further, in series [5], the viability at 12.5 μg/mL was 70.3 ± 0.89%, the viability at 25 μg/mL is 59.5 ± 1.8%, the viability at 50 μg/mL amounted to 49.6 ± 2.2% and the viability at 100 μg/mL amounted to 32.4 ± 0.89%. Also, the IC50 with K562 cells was 86.8 µM.
On to `COc1cc2c(cc1OC)[C@]1(O)C(=O)c3ccc4c(c3O[C@@H]1CO2)C=CC(C)(C)O4` [tephrosin], for which, in series [7] (at a concentration of 3.125 μM), the cell toxicity entry is reported as “without cell toxicity”. Further, in series [7] (read-out: anti-inflammatory activity IC50), the IC50 is less than 10 µM.
berectones A: the IC50 at α-glucosidase [8] was 144 µM.

One may read the IC50 as the concentration that gives 50% inhibition. Broadly, the viability is a read-out of living cells in per cent, often relative to untreated cells.

The values are drawn from publication PMC9301698 (ACS Omega, 2022).
